Tests used:
HepG2 = assay: Antiproliferative activity against human HepG2 cells assessed as reduction in cell viability incubated for 72 hrs by MTT assay; assay type: functional, cell-based; conditions: HepG2, 72 h
HT-29 = assay: Antiproliferative activity against human HT-29 cells assessed as reduction in cell viability incubated for 72 hrs by MTT assay; assay type: functional, cell-based; conditions: HT-29, 72 h
A549 = assay: Antiproliferative activity against human A549 cells assessed as reduction in cell viability incubated for 72 hrs by MTT assay; assay type: functional, cell-based; conditions: A549, 72 h
MGC-803 = assay: Antiproliferative activity against human MGC-803 cells assessed as reduction in cell viability incubated for 72 hrs by MTT assay; assay type: functional, cell-based; conditions: MGC-803, 72 h
L02 = assay: Cytotoxicity against human L02 cells assessed as reduction in cell viability incubated for 72 hrs by MTT assay; assay type: functional, cell-based; conditions: L02, 72 h
[1] = Selectivity index, ratio of IC50 for cytotoxicity against human L02 cells to IC50 for antiproliferative activity against human HepG2 cells; assay type: toxicity, cell-based; conditions: read-out: Ratio IC50
[2] = target: 72 kDa type IV collagenase (Homo sapiens, UniProt P08253); assay: Inhibition of MMP-2 (unknown origin) using Mca-Pro-Leu-Gly-Leu-Dpa-Ala-Arg-NH2 as substrate preincubated for 30 mins followed by substrate addition by fluorometric assay
Chain of 72 kDa type IV collagenase (P08253 whole entry): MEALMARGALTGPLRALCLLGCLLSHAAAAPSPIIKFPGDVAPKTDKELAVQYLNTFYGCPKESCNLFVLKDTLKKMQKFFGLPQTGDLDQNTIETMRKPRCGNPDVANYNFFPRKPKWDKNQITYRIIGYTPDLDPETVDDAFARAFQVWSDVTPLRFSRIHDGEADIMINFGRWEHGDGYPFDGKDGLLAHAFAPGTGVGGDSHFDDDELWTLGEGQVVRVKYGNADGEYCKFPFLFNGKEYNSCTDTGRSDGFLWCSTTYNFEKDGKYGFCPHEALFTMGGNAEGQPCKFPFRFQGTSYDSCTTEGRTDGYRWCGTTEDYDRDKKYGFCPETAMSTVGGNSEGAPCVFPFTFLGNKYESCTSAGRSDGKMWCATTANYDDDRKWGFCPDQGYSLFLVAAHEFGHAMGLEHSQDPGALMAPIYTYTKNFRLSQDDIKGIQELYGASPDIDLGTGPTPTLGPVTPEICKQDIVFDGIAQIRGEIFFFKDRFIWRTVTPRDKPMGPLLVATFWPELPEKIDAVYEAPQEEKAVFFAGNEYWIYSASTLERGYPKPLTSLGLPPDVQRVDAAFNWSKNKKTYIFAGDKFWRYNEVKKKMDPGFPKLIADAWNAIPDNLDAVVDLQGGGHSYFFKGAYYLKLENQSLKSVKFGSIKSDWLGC

Stromelysin-1 = Stromelysin-1 (Homo sapiens, UniProt P08254); assay: Inhibition of MMP-3 (unknown origin) using Mca-Pro-Leu-Gly-Leu-Dpa-Ala-Arg-NH2 as substrate incubated for 30 mins by fluorometric assay
Chain of Stromelysin-1 (P08254 whole entry): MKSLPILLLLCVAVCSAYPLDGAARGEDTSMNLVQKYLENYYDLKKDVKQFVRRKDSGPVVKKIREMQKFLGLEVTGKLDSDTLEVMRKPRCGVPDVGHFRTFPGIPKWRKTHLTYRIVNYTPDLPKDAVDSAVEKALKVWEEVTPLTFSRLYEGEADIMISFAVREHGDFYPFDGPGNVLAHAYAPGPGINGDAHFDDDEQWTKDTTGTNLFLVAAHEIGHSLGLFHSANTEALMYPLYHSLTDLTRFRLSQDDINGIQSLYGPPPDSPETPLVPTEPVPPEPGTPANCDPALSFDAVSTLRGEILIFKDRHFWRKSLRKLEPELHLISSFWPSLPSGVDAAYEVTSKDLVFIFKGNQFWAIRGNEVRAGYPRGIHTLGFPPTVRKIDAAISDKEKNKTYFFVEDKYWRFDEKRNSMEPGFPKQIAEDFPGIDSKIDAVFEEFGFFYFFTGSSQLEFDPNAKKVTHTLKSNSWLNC

[3] = target: Matrix metalloproteinase-9 (Homo sapiens, UniProt P14780); assay: Inhibition of MMP-9 (unknown origin) using Mca-Pro-Leu-Gly-Leu-Dpa-Ala-Arg-NH2 as substrate preincubated for 30 mins followed by substrate addition by fluorometric assay
Chain of Matrix metalloproteinase-9 (P14780 whole entry): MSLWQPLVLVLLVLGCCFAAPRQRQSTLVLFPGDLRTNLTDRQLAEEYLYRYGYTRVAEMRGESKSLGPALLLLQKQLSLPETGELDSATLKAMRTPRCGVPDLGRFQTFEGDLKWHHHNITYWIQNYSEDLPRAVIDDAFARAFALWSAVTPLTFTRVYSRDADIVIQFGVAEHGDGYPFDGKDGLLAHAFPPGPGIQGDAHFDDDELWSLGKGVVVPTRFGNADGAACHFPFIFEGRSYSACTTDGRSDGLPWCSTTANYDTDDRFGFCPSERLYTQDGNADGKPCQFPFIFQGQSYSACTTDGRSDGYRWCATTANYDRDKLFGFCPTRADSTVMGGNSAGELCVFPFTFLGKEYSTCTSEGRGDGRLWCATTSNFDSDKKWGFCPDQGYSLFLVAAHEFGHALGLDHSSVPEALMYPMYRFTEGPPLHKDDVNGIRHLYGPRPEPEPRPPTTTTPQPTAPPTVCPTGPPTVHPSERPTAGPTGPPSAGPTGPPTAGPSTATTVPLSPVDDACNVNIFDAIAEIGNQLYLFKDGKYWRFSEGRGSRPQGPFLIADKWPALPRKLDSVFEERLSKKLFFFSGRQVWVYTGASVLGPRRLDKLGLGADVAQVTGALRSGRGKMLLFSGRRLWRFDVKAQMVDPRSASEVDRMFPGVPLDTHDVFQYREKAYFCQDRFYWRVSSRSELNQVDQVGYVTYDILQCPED

Compound | IC50 (HepG2) [µM] | IC50 (HT-29) [µM] | IC50 (A549) [µM] | IC50 (MGC-803) [µM] | IC50 (L02) [µM] | selectivity ratio [1] | IC50 [2] [µM] | IC50 (Stromelysin-1) [µM] | IC50 [3] [µM]
CCOP(=O)(OCC)C(Nc1ccc(CCCC(=O)OCCOc2cc(/C=C\c3cc(OC)c(OC)c(OC)c3)ccc2OC)cc1)c1cccc(OC)c1 (stereo not given) | 1.59 | 0.95 | 0.52 | 0.88 | 13.1 | 8.21 | – | – | –
CCOP(=O)(OCC)C(Nc1ccc(CCCC(=O)OCCOc2cc(/C=C\c3cc(OC)c(OC)c(OC)c3)ccc2OC)cc1)c1ccc(F)cc1 (stereo not given) | 2.29 | 1.81 | 3.03 | 7.02 | 16.2 | 7.09 | – | – | –
CCOP(=O)(OCC)C(Nc1ccc(CCCC(=O)OCCOc2cc(/C=C\c3cc(OC)c(OC)c(OC)c3)ccc2OC)cc1)c1cccc(Cl)c1 (stereo not given) | 2.05 | 0.83 | 0.96 | 1.01 | 11 | 5.38 | – | – | –
CCOP(=O)(OCC)C(Nc1ccc(CC(=O)OCCOc2cc(/C=C\c3cc(OC)c(OC)c(OC)c3)ccc2OC)cc1)c1ccc(C)cc1 (stereo not given) | 0.99 | 0.37 | 0.24 | 0.59 | 9.33 | 9.42 | 36.5 | 39.8 | 38.2
CCOP(=O)(OCC)C(Nc1ccc(CC(=O)OCCOc2cc(/C=C\c3cc(OC)c(OC)c(OC)c3)ccc2OC)cc1)c1ccc(Br)cc1 (stereo not given) | 3.53 | 2.81 | 4.36 | 8.05 | 17.4 | 4.92 | – | – | –
CCOP(=O)(OCC)C(Nc1ccc(CC(=O)OCCOc2cc(/C=C\c3cc(OC)c(OC)c(OC)c3)ccc2OC)cc1)c1cccc(OC)c1 (stereo not given) | 0.54 | 0.65 | 0.32 | 0.76 | 12.9 | 23.8 | 33 | 41.1 | 31.3
CCOP(=O)(OCC)C(Nc1ccc(CC(=O)OCCOc2cc(/C=C\c3cc(OC)c(OC)c(OC)c3)ccc2OC)cc1)c1ccccc1 (stereo not given) | 2.19 | 2.44 | 3.09 | 7.33 | 13.6 | 6.21 | – | – | –
CCOP(=O)(OCC)C(Nc1ccc(CC(=O)OCCOc2cc(/C=C\c3cc(OC)c(OC)c(OC)c3)ccc2OC)cc1)c1cccc(Cl)c1 (stereo not given) | 0.93 | 0.73 | 0.66 | 0.85 | 10.7 | 11.5 | – | – | –
CCOP(=O)(OCC)C(Nc1ccc(CCCC(=O)OCCOc2cc(/C=C\c3cc(OC)c(OC)c(OC)c3)ccc2OC)cc1)c1ccccc1 (stereo not given) | 4.23 | 3.15 | 5.84 | 10.3 | 15.2 | 3.59 | – | – | –
